US8680159B2, “Bradykinin 1 receptor modulating compounds” (Gruenenthal GmbH, priority 2010, dated 2014)

Each compound was assayed against T1, human B1R receptor (CHO K1 cells stably transfected with the human B1R gene) (Homo sapiens, UniProt P46663) (assay: Functional study on the bradykinin receptor 1 (B1R), Ca2+ fluorescence (Fluo-4) FLIPR/Novostar assay, hB1R cells). Conditions: CHO-K1, read-out: % Inhibition (h-B1R) at 10 μM.
T1 construct: expressed in transfected cells; host or cells: CHO K1 cells (Chinese hamster ovary), stably transfected
T1 sequence (P46663 1-353): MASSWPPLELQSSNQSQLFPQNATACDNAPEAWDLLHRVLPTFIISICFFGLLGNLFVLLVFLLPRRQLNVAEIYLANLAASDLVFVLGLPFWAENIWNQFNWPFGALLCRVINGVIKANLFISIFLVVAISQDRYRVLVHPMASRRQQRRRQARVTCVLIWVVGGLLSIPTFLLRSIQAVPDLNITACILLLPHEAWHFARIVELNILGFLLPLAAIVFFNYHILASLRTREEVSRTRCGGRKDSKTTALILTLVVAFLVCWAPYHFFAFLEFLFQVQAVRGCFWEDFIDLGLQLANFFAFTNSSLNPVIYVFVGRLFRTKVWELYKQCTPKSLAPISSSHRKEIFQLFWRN
Assay type: cell-based
Method: The agonistic or antagonistic action of substances can be quantified on the bradykinin receptor 1 (B1R) of the species human and rat using ectopically expressing cell lines (CHO K1 cells) and with the aid of a Ca^2+-sensitive dye (Fluo-4) using a fluorescent imaging plate reader (FLIPR). The indication in % activation is based on the Ca^2+ signal after addition of Lys-Des-Arg^9-bradykinin (0.5 nM) or Des-Arg^9-bradykinin (100 nM). Antagonists lead to suppression of the Ca^2+ influx after the addition of the agonist. % Inhibition compared with the maximum achievable inhibition is indicated.
The agonistic or antagonistic action of substances can be determined on the bradykinin receptor 1 (B1R) of the species human and rat using the following assay. According to this assay, the increase in intracellular Ca^2+ following administration of a B1R agonist is quantified with the aid of a Ca^2+-sensitive dye (Fluo-4 type, Molecular Probes Europe BV, Leiden, Netherlands) using a Fluorescent Imaging Plate Reader (FLIPR, Molecular Devices, Sunnyvale, USA) and/or using a Novostar (BMG Labtech GmbH, Offenburg, Germany).
Chinese hamster ovary cells (CHO K1 cells) which have been stably transfected with the human B1R gene (hB1R cells) or with the B1R gene of the rat (rB1R cells) are used. For functional studies, the cells are plated out on black 96-well plates having a clear base (BD Biosciences, Heidelberg, Germany or Greiner, Frickenhausen, Germany) in a density of 20,000-35,000 cells/well. The cells are left overnight at 37° C. and with 5% CO2 in culture medium (hB1R cells: Nutrient Mixture Ham's F12, Gibco Invitrogen GmbH, Karlsruhe, Germany or DMEM, Sigma-Aldrich, Taufkirchen, Germany; rB1R cells: D-MEM/F12, Gibco Invitrogen GmbH, Karlsruhe, Germany), with 10 vol. % FBS (fetal bovine serum, Gibco Invitrogen GmbH, Karlsruhe, Germany or PAN Biotech GmbH, Aidenbach, Germany). On the following day, the cells are loaded for 60 minutes at 37° C. with 2.13 μM Fluo-4 (Molecular Probes Europe BV, Leiden, Netherlands) in HBSS buffer (Hank's buffered saline solution, Gibco Invitrogen GmbH, Karlsruhe, Germany) […] (Sigma-Aldrich, Taufkirchen, Germany) and 10 mM HEPES (Sigma-Aldrich, Taufkirchen, Germany). The plates are then washed twice with HBSS buffer, and HBSS buffer additionally containing 0.1% BSA (bovine serum albumin; Sigma-Aldrich, Taufkirchen, Germany), 5.6 mM glucose and 0.05% gelatin (Merck KGaA, Darmstadt, Germany) is added to the plates. After incubation for a further 20 minutes at room temperature, the plates are inserted into the FLIPR or Novostar for Ca^2+ measurement. Alternatively, washing is carried out with buffer A (15 mM HEPES, 80 mM NaCl, 5 mM KCl, 1.2 mM CaCl2, 0.7 mM MgSO4, 2 g/l glucose, 2.5 mM probenecid) followed by loading with buffer A with added 2.5 μM Fluo-4 and 0.025% Pluronic F127 (Sigma-Aldrich, Taufkirchen, Germany). The cells are then washed twice with buffer A and incubated for 30 minutes at room temperature with buffer A additionally containing 0.05% BSA and 0.05% gelatin and are then inserted into the FLIPR or Novostar for Ca^2+ measurement. The Ca^2+-dependent fluorescence is measured before and after the addition of substances (λex=488 nm, λem=540 nm). Quantification is carried out by measuring the highest fluorescence intensity (FC, fluorescence counts) over time.
The FLIPR protocol consists of 2 substance additions, which are pipetted in the FLIPR. In the case of measurements using the Novostar, only the second substance addition is pipetted in the device. Both devices measure the fluorescence intensity over time. Test substances (10 μM) are first pipetted onto the cells and the intracellular Ca^2+ increase is compared with the control (hB1R: Lys-Des-Arg^9-bradykinin>=50 nM; rB1R: Des-Arg^9-bradykinin>=1 μM). This gives the % activation, based on the Ca^2+ signal after addition of Lys-Des-Arg^9-bradykinin (>=50 nM) or Des-Arg^9-bradykinin (>=1 μM). […]

inhibition at 10 µM [%] | Structure (SMILES)
100 | Cc1cc(N2CCC(N(C)C(=O)c3ccc4c(c3)C(N(C)C(=O)CC(C)C)CC4)CC2)cc(C)n1 (stereo not drawn) [CC_H-90, N-[1-(2,6-Dimethyl-pyridin-4-yl)-piperidin-4-yl]-N-methyl-3-[methyl-(3-methyl-butanoyl)-amino]-2,3-dihydro-1H-indene-5-carboxylic acid amide]
99 | Cc1cc(N2CCC(N(C)C(=O)c3ccc4c(c3)C(N(C)C(=O)c3c(C)cccc3C)CC4)CC2)cc(C)n1 (stereo not drawn) [CC_H-91, 3-[(2,6-Dimethyl-benzoyl)-methyl-amino]-N-[1-(2,6-dimethyl-pyridin-4-yl)-piperidin-4-yl]-N-methyl-2,3-dihydro-1H-indene-5-carboxylic acid amide]
98 | Cc1cc(N2CCC(N(C)C(=O)c3ccc4c(c3)C(N(C)C(=O)c3cncnc3)CC4)CC2)cc(C)n1 (stereo not drawn) [CC_H-92, N-[6-[[1-(2,6-Dimethyl-pyridin-4-yl)-piperidin-4-yl]-methyl-carbamoyl]-2,3-dihydro-1H-inden-1-yl]-N-methyl-pyrimidine-5-carboxylic acid amide]
100 | CN(C(=O)c1ccc2c(c1)C(NS(=O)(=O)c1c(Cl)cccc1C(F)(F)F)CC2(C)C)C1CCN(c2ccncc2)CC1 (stereo not drawn) [CC_H-93, 3-[[[2-Chloro-6-(trifluoromethyl)-phenyl]sulfonyl]amino]-N,1,1-trimethyl-N-(1-pyridin-4-yl-piperidin-4-yl)-2,3-dihydro-indene-5-carboxylic acid amide]
100 | CN(C(=O)NC1CCCc2ccc(C(=O)N(C)C3CCN(c4ccncc4)CC3)cc21)c1ccccc1Cl (stereo not drawn) [CC_H-94, 8-[[(2-Chlorophenyl)-methyl-carbamoyl]amino]-N-methyl-N-(1-pyridin-4-yl-piperidin-4-yl)-5,6,7,8-tetrahydro-naphthalene-2-carboxylic acid amide]
100 | CN(C(=O)c1ccc2c(c1)C(NC(=O)C(C)(C)c1ccccc1Cl)CC2(C)C)C1CCN(c2ccncc2)CC1 (stereo not drawn) [CC_H-95, 3-[[2-(2-Chlorophenyl)-2-methyl-propanoyl]amino]-N,1,1-trimethyl-N-(1-pyridin-4-yl-piperidin-4-yl)-2,3-dihydro-indene-5-carboxylic acid amide]
100 | Cc1cc(N2CCC(N(C)C(=O)c3ccc4c(c3)C(NC(=O)c3cccc(Cl)c3Cl)CC4)CC2)cc(C)n1 (stereo not drawn) [CC_H-96, 3-[(2,3-Dichloro-benzoyl)amino]-N-[1-(2,6-dimethyl-pyridin-4-yl)-piperidin-4-yl]-N-methyl-2,3-dihydro-1H-indene-5-carboxylic acid amide]
92 | CN(C(=O)c1ccc2c(c1)C(NC(=O)C(C)(C)c1ccccc1Cl)CCO2)C1CCN(c2ccncc2)CC1 (stereo not drawn) [CC_H-97, 4-[[2-(2-Chlorophenyl)-2-methyl-propanoyl]amino]-N-methyl-N-(1-pyridin-4-yl-piperidin-4-yl)-3,4-dihydro-2H-chromene-6-carboxylic acid amide]
92 | CN(C(=O)c1ccc2c(c1)C(NC(=O)C(C)(C)c1ccccc1Cl)CC2)C1CCN(c2ccc3cnccc3c2)CC1 (stereo not drawn) [CC_H-98, 3-[[2-(2-Chlorophenyl)-2-methyl-propanoyl]amino]-N-(1-isoquinolin-6-yl-piperidin-4-yl)-N-methyl-2,3-dihydro-1H-indene-5-carboxylic acid amide]
100 | Cc1cc(N2CCC(N(C)C(=O)c3ccc4c(c3)C(NC(=O)c3ccccc3Cl)CC4)CC2)cc(C)n1 (stereo not drawn) [CC_H-99, 3-[(2-Chloro-benzoyl)amino]-N-[1-(2,6-dimethyl-pyridin-4-yl)-piperidin-4-yl]-N-methyl-2,3-dihydro-1H-indene-5-carboxylic acid amide]
77 | CN(C(=O)c1ccc2c(c1)CCC2NC(=O)C(C)(C)c1ccccc1Cl)C1CCN(c2ccncc2)CC1 (stereo not drawn) [CC_H-100, 1-[[2-(2-Chlorophenyl)-2-methyl-propanoyl]amino]-N-methyl-N-(1-pyridin-4-yl-piperidin-4-yl)-2,3-dihydro-1H-indene-5-carboxylic acid amide]
100 | O=C(CCC1CCCC1)NC1CCc2ccc(C(=O)NCCC3CCN(c4ccncc4)CC3)cc21 (stereo not drawn) [CC_H-101, 3-(3-Cyclopentyl-propanoylamino)-N-[2-(1-pyridin-4-yl-piperidin-4-yl)-ethyl]-2,3-dihydro-1H-indene-5-carboxylic acid amide]
99 | CN(C(=O)c1ccc2c(c1)C(NC(=O)C(C)(C)c1ccccc1Cl)CCC2)C1CCN(c2ccncc2)CC1 (stereo not drawn) [CC_H-102, 8-[[2-(2-Chlorophenyl)-2-methyl-propanoyl]amino]-N-methyl-N-(1-pyridin-4-yl-piperidin-4-yl)-5,6,7,8-tetrahydro-naphthalene-2-carboxylic acid amide]
89 | CC(C)(C(=O)NC1CCc2ccc(C(=O)NCCC3CCN(c4ccncc4)CC3)cc21)c1ccccc1Cl (stereo not drawn) [CC_H-103, 3-[[2-(2-Chlorophenyl)-2-methyl-propanoyl]amino]-N-[2-(1-pyridin-4-yl-piperidin-4-yl)-ethyl]-2,3-dihydro-1H-indene-5-carboxylic acid amide]
100 | CN(C(=O)NC1CCc2ccc(C(=O)N(C)C3CCN(c4ccc5cnccc5c4)CC3)cc21)c1ccccc1Cl (stereo not drawn) [CC_H-104, 3-[[(2-Chlorophenyl)-methyl-carbamoyl]amino]-N-(1-isoquinolin-6-yl-piperidin-4-yl)-N-methyl-2,3-dihydro-1H-indene-5-carboxylic acid amide]
90 | Cc1cccc(C)c1C(=O)NC1CCc2ccc(C(=O)NCCC3CCN(c4ccncc4)CC3)cc21 (stereo not drawn) [CC_H-105, 3-[(2,6-Dimethyl-benzoyl)amino]-N-[2-(1-pyridin-4-yl-piperidin-4-yl)-ethyl]-2,3-dihydro-1H-indene-5-carboxylic acid amide]
100 | CN(C(=O)c1ccc2c(c1)C(N(C)C(=O)c1ccccc1Cl)CC2)C1CCN(c2ccncc2)CC1 (stereo not drawn) [CC_H-106, 3-[(2-Chloro-benzoyl)-methyl-amino]-N-methyl-N-(1-pyridin-4-yl-piperidin-4-yl)-2,3-dihydro-1H-indene-5-carboxylic acid amide]
97 | Cc1cc(N2CCC(N(C)C(=O)c3ccc4c(c3)C(NC(=O)c3c(Cl)cccc3C(F)(F)F)CC4)CC2)cc(C)n1 (stereo not drawn) [CC_H-107, 3-[[2-Chloro-6-(trifluoromethyl)-benzoyl]amino]-N-[1-(2,6-dimethyl-pyridin-4-yl)-piperidin-4-yl]-N-methyl-2,3-dihydro-1H-indene-5-carboxylic acid amide]
